Patent US20180160684A1 (priority 2015, published 2018)
Read-outs that look alike come from different tables or passages of the source.

Test system: tomato late blight
Assay type: in vivo, Phytophthora infestans

CC1COC(Cn2cncn2)(c2ccc(Oc3ccc(Cl)cc3)cc2Cl)O1 (stereo not drawn) [Difenoconazole, difenoconazole]
Control value (difenoconazole 12.5 ppm alone (valifenalate 0 ppm)): 13 | Control value (difenoconazole 25 ppm alone (valifenalate 0 ppm)): 13 | Control value (difenoconazole 50 ppm alone (valifenalate 0 ppm)): 21 | Control value (difenoconazole 100 ppm alone (valifenalate 0 ppm)): 25

Cc1cc(OC(C)C)ccc1C(=O)C(C)(C)NC(=O)c1sccc1C [Isofetamid, isofetamid]
Control value (isofetamid 18.8 ppm alone (valifenalate 0 ppm)): 0 | Control value (isofetamid 37.5 ppm alone (valifenalate 0 ppm)): 0 | Control value (isofetamid 75 ppm alone (valifenalate 0 ppm)): 0 | Control value (isofetamid 150 ppm alone (valifenalate 0 ppm)): 4 | Control value (isofetamid 300 ppm alone (valifenalate 0 ppm)): 8

COc1cc(C)c(C(=O)c2c(OC)ncc(Cl)c2C)c(OC)c1OC [Pyriofenone, pyriofenone]
Control value (pyriofenone 12.5 ppm alone (valifenalate 0 ppm)): 0 | Control value (pyriofenone 25 ppm alone (valifenalate 0 ppm)): 0 | Control value (pyriofenone 50 ppm alone (valifenalate 0 ppm)): 0 | Control value (pyriofenone 100 ppm alone (valifenalate 0 ppm)): 0

CC(C)(C)C(O)(CCc1ccc(Cl)cc1)Cn1cncn1 (stereo not drawn) [Tebuconazole, tebuconazole]
Control value (tebuconazole 12.5 ppm alone (valifenalate 0 ppm)): 4 | Control value (tebuconazole 25 ppm alone (valifenalate 0 ppm)): 4 | Control value (tebuconazole 50 ppm alone (valifenalate 0 ppm)): 4 | Control value (tebuconazole 100 ppm alone (valifenalate 0 ppm)): 8

COC(=O)CC(NC(=O)[C@@H](NC(=O)OC(C)C)C(C)C)c1ccc(Cl)cc1 (stereo partly drawn) [Valifenalate, valifenalate]
Control value (valifenalate 1.2 ppm alone (difenoconazole 0 ppm), Table 4): 46 | Control value (valifenalate 1.2 ppm alone (isofetamid 0 ppm), Table 1): 29 | Control value (valifenalate 1.2 ppm alone (pyriofenone 0 ppm), Table 2): 13 | Control value (valifenalate 2.3 ppm alone (difenoconazole 0 ppm), Table 4): 54 | Control value (valifenalate 2.3 ppm alone (isofetamid 0 ppm), Table 1): 42 | Control value (valifenalate 2.3 ppm alone (pyriofenone 0 ppm), Table 2): 25 | Control value (valifenalate 2.3 ppm alone (tebuconazole 0 ppm), Table 3): 33 | Control value (valifenalate 4.7 ppm alone (difenoconazole 0 ppm), Table 4): 58 | Control value (valifenalate 4.7 ppm alone (isofetamid 0 ppm), Table 1): 54 | Control value (valifenalate 4.7 ppm alone (pyriofenone 0 ppm), Table 2): 50 | Control value (valifenalate 4.7 ppm alone (tebuconazole 0 ppm), Table 3): 46 | Control value (valifenalate 9.4 ppm alone (difenoconazole 0 ppm), Table 4): 75 | Control value (valifenalate 9.4 ppm alone (isofetamid 0 ppm), Table 1): 71 | Control value (valifenalate 9.4 ppm alone (pyriofenone 0 ppm), Table 2): 63 | Control value (valifenalate 9.4 ppm alone (tebuconazole 0 ppm), Table 3): 63 | Control value (valifenalate 18.8 ppm alone (isofetamid 0 ppm), Table 1): 75 | Control value (valifenalate 18.8 ppm alone (pyriofenone 0 ppm), Table 2): 79 | Control value (valifenalate 18.8 ppm alone (tebuconazole 0 ppm), Table 3): 67 | Control value (valifenalate 37.5 ppm alone (tebuconazole 0 ppm), Table 3): 72
